Measurements from patent US20240408112A1, “METHOD FOR PREVENTING OR TREATING PULMONARY ARTERIAL HYPERTENSION BY USING 7-DEHYDROCHOLESTEROLS OR SALTS, OXIDES, METABOLITES, OR DERIVATIVES THEREOF” (EXCELSIOR PHARMATECH LABS., priority 2023, published 2024).

Assays:
[1] = tested on: normal rat pulmonary artery smooth muscle cells (rPASMC CON); assay: BrdU cell proliferation assay, 10% FBS, rPASMC CON; type: cell-based
Protocol: (§1) BrdU (5-bromo-2-deoxyuridine) cell proliferation assay (BrdU assay)
(§2) A 48-well plate was used, and 1.5×10^4 cells were implanted in each well. After 24 hours, the medium was changed to serum-free culture medium and synchronized for 24 hours. A 2-fold concentration of the compound in serum-free culture medium is prepared and the cells were pretreated for 1 hour. Then, the same volume of culture medium containing 20% fetal bovine serum (FBS) was added to dilute the compound. The final concentration was 10% FBS culture medium and 1 times the concentration of the compound. In the experimental group that added TGF-β, the same volume of TGF-β culture medium containing 10 ng/mL was added, with a final concentration of 5 ng/mL TGF-β and 1 times the concentration of the compound, and in the experimental group added with TGF-β, the entire process was conducted in culture medium containing 0.1% serum. Then, BrdU reagent was added about 6 hours later, and the cells were collected the next day for enzyme-linked immunosorbent assay (ELISA) analysis, the compound treatment time was about 24 hours, and the BrdU treatment time was about 18 hours.
(§3) Five compounds to be tested were screened by cell survival assay (MTT assay) and BrdU (5-bromo-2-deoxyuridine) cell proliferation assay, and the information of these compounds was listed in Table 1 below. Tables 2 and 3 respectively listed the growth inhibitions of on human pulmonary artery endothelial cells (hPAEC), human pulmonary artery smooth muscle cells (hPASMC), normal rat pulmonary artery smooth muscle cells (rPASMC, as the control group, represented by “CON”), and rat pulmonary artery smooth muscle cells (represented by “MCT”), by the five compounds to be tested under the conditions of 10% FBS, 0.1% FBS and 100 pM TGF-β.

[2] = tested on: PAH rat pulmonary artery smooth muscle cells (rPASMC MCT); assay: BrdU cell proliferation assay, 10% FBS, rPASMC MCT; type: cell-based
Protocol: as §1, §2, §3

[3] = tested on: normal rat pulmonary artery smooth muscle cells (rPASMC CON); assay: BrdU cell proliferation assay, 0.1% FBS, 100 pM TGF-β, rPASMC CON; type: cell-based; conditions: 100 pM TGF-β
Protocol: as §1
as §2, with “with a final concentration of 5 ng/mL TGF-β and 1 times the concentration” left out
Five compounds to be tested were screened by cell survival assay (MTT assay) and BrdU (5-bromo-2-deoxyuridine) cell proliferation assay, and the information of these compounds was listed in Table 1 below.

[4] = tested on: monocrotaline induced pulmonary arterial hypertension rat; assay: Monocrotaline-induced pulmonary arterial hypertension rat model, Example 3 (7-DHC vs macitentan); type: in vivo; conditions: for Right ventricle pressure (RVP): 25th day after monocrotaline induction, MCT rats 28.97 mmHg; for Arterial gas analysis PaO2 and PaCO2, in words: between groups CON, MCT and treated; for Thickening of pulmonary arteries, in words: p<0.001, vs MCT rats (exceeded 65%); for Base excess (BE) value: MCT group −6, normal −2 to +2; for Average right ventricle hypertrophy ratio (RV/S+LV): MCT rats 71.64%, normal rats 26.7%
Description: Pulmonary arterial hypertension animal experimental model
The present disclosure utilizes injection of monocrotaline to induce symptoms of pulmonary arterial hypertension in rats to establish a pulmonary arterial hypertension animal experimental model suitable for screening test drugs.
The diagnostic method of clinical pulmonary arterial hypertension standards is right heart catheterization, which is defined as mean pulmonary arterial pressure (mPAP) greater than or equal to 20 mmHg. The diagnostic criteria for pulmonary arterial hypertension, in addition to an increase in mean pulmonary arterial pressure, need to be combined with pulmonary vascular resistance (PVR) greater than 3 Wood unit. The right ventricle pressure (RVP) and systemic mean blood pressure (mbp) in rats with pulmonary arterial hypertension were measured by Millar Model PCU200 pressure system, and the heart rate (HR) was also monitored at the same time. After measuring the hemodynamic data, the arterial blood was extracted from the carotid artery of the pulmonary arterial hypertension rat, and the Abbott blood oximeter (i-STAT) combined with Abbott's special chip cartridge (i-STAT Cartridge G3+) was used to measure arterial gas analysis data such as pH, PaO2, PaCO2, HCO3 and base excess (BE) value in quantitative whole blood samples. The normal pH value is between 7.35 and 7.45, and the pH value indicates whether the experimental animal has the condition of acidemia, alkalemia, acidosis or alkalosis. The normal value of PaO2 is between 80 and 100 mmHg, which reflects the effectiveness of gas exchange (ventilation/perfusion). The normal value of PaCO2 is between 35 and 45 (such as 38 and 42) mmHg, which can evaluate the effectiveness of alveolar ventilation. The acid produced by food, tissue decomposition, inflammation and hypoxia rely on the lungs to excrete volatile acid CO2 (short-term) and the bicarbonate (HCO3^−) produced by the kidneys (long-term) to neutralize non-volatile acids, while the normal value of bicarbonate hydrogen radical (HCO3^−) is between 22 and 26 meq/L. BE is the base excess value, its normal value ranges from −2 to +2, the negative value represents the degree of alkali ion deficiency in the blood, a negative BE value (−) that is too high indicates metabolic acidosis, and a positive value (+) that is too high is metabolic alkalosis. At the end of the experiment, the rats were sacrificed and their hearts were removed and the left and right ventricles were separated and weighed (RV)/(S)+(LV).
Monocrotaline was utilized to induce pulmonary arterial hypertension rat animal model, intraperitoneal injection (IP) TGF-β receptor inhibitor 7-DHC (039) and oral administration of macitentan (soluble in methylcellulose), 7-DHC (039) was divided into two groups according to the dosage: 10 mg/kg or 20 mg/kg, and the dosage of macitentan group was 30 mg/kg.

[5] = tested on: human pulmonary artery smooth muscle cells (hPASMC); assay: BrdU cell proliferation assay, 10% FBS, hPASMC; type: cell-based
Protocol: as §1, §2, §3

[6] = tested on: PAH rat pulmonary artery smooth muscle cells (rPASMC MCT); assay: BrdU cell proliferation assay, 0.1% FBS, 100 pM TGF-β, rPASMC MCT; type: cell-based; conditions: 100 pM TGF-β
Protocol: as §1, §2, §3

[7] = Rattus norvegicus, read-out: EC50 (concentration for 50% of maximal effect)

Structure (SMILES): CC(C)CCCC(C)C1CCC2C3=CC=C4CC(O)CCC4(C)C3CCC21C (stereo not drawn) [Code 039, 7-DHC]
- EC50 [1, 7]: 38 µM
- Inhibition of cell growth (in words) ([1]; rPASMC CON1, 10% FBS, FIG. 2): significant inhibitory effects
- EC50 [2, 7]: 37 µM
- Inhibition of cell growth (in words) ([2]; rPASMC MCT4, 10% FBS, FIG. 2): significant inhibitory effects
- EC50 ([3]; Rattus norvegicus, CON (normal rPASMC), 0.1% FBS, read-out: EC50): 30 µM
- Inhibition of cell growth (in words) ([3]; rPASMC CON3, 0.1% FBS, 25 μM, FIG. 3): significant inhibitory effects
- Right ventricle pressure (RVP) ([4]; 10 mg/kg IP): 17.61 mmHg
- Arterial gas analysis PaO2 and PaCO2, in words ([4]; 10 mg/kg IP): no significant difference
- Thickening of pulmonary arteries, in words ([4]; 10 mg/kg IP): significantly reduced
- Base excess (BE) value ([4]; 10 mg/kg IP): −3
- Average right ventricle hypertrophy ratio (RV/S+LV) ([4]; 10 mg/kg IP): 53.96%
- Activity of the rats ([4]; 20 mg/kg IP): did not affect
- Survival rate ([4]; 20 mg/kg IP): 100%
- Weight of rats ([4]; 20 mg/kg IP): decreased significantly
- Right ventricle pressure (RVP) ([4]; 20 mg/kg IP): 19.96 mmHg
- Arterial gas analysis PaO2 and PaCO2, in words ([4]; 20 mg/kg IP): no significant difference
- Thickening of pulmonary arteries, in words ([4]; 20 mg/kg IP): significantly reduced
- Base excess (BE) value ([4]; 20 mg/kg IP): −1.4
- Average right ventricle hypertrophy ratio (RV/S+LV) ([4]; 20 mg/kg IP): 62.97%
- Systemic average blood pressure and heartbeat, in words ([4]; 10 or 20 mg/kg IP): did not significantly reduce
- EC50 ([5]; Homo sapiens, read-out: EC50 (concentration for 50% of maximal effect)): 53 µM
- Inhibition of cell growth (in words) ([5]; hPASMC, 10% FBS, FIG. 2): inhibition of cell growth can also be observed
- EC50 ([6]; Rattus norvegicus, MCT (PAH rPASMC), 0.1% FBS, read-out: EC50): 20 µM
- Inhibition of cell growth (in words) ([6]; rPASMC MCT2, 0.1% FBS, 25 μM, FIG. 3): significant inhibitory effects
